According to BindingDB's records for doi:10.7270/Q2028PZ5 (Burnham Center For Chemical Genomics, 2010):

Target: G-protein coupled receptor 55 (Homo sapiens, UniProt Q9Y2T6)
Assay: blockers of GPR55 signalling, imaged – imaging, image-based, counter-screen for GPR35 antagonist project, SAR follow-up (AID 2397)
Settings: inactive by the depositor's call

G-protein coupled receptor 55, sequence (Q9Y2T6 whole entry): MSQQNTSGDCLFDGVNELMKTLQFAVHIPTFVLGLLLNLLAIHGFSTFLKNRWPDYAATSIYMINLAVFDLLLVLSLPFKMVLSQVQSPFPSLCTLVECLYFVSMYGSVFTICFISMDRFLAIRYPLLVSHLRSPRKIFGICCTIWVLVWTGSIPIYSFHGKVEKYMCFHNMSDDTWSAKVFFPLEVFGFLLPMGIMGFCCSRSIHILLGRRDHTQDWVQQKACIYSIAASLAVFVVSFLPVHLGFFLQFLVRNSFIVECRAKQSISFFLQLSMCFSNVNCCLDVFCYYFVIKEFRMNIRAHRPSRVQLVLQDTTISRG

Compound `CC(/C=C1\SC(=S)N(CCCC(=O)Nc2ccc(C(=O)O)c(O)c2)C1=O)=C\c1ccccc1` [2-hydroxy-4-[[4-[(5Z)-5-[(E)-2-methyl-3-phenylprop-2-enylidene]-4-oxo-2-sulfanylidene-3-thiazolidinyl]-1-oxobutyl]amino]benzoic acid] has an IC50 of 21.7 µM.
